Experiments:
[1] = test system: control sera (pooled serum of ten healthy LUMC hospital workers; commercial negative donor pooled serum from the Dutch bloodbank); type: binding, human; parameters: Binding of Control serum LUMC to linear peptides / Binding of Control serum Blood-bank to linear peptides / Binding of Control serum LUMC to looped peptides / Binding of Control Serum Blood-Bank to Looped peptides / Binding of Control serum LUMC to linear peptides of the protein M of SARS-CoV Urbani / Binding of Control serum Blood-bank to linear peptides of the protein M of SARS-CoV Urbani / Binding of Control serum LUMC to looped peptides of the protein M of SARS-CoV Urbani / Binding of Control Serum Blood-Bank to Looped peptides of the protein M of SARS-CoV Urbani: unit not given here
[2] = test system: rabbit serum obtained by immunizing a rabbit with the SARS-CoV strain Frankfurt 1; type: binding; parameters: Binding of a rabbit serum to linear peptides / Binding of a rabbit serum to looped peptides / Rabbit serum linear peptides / Rabbit serum looped peptides / Binding of a rabbit serum to linear peptides of protein N of SARS-CoV Urbani (Rabbit serum linear peptides) / Binding of a rabbit serum to looped/cyclic peptides of protein N of SARS-CoV Urbani (Rabbit serum looped peptides): unit not given here
[3] = test system: antibodies in sera from SARS patients (sera 1a, 1b, 2, 6, 37, 62, London, SARS-yellow, SARS-green); type: binding, human; parameters: Binding of serum 6 to linear peptides of protein X1 of SARS-CoV Urbani / Binding of serum 37 to linear peptides of protein X1 of SARS-CoV Urbani / Binding of serum 6 to looped/cyclic peptide (PEPSCAN-ELISA) / Binding of serum 37 to looped/cyclic peptide (PEPSCAN-ELISA) / Binding of serum 37 to looped/cyclic peptides of protein X1 of SARS-CoV Urbani / Binding of serum 6 to linear peptides of protein X2 / Binding of serum 37 to linear peptides of protein X2 / Binding of serum 37 to looped/cyclic peptides of protein X2 of SARS-CoV Urbani / Binding of serum 6 to linear peptides of protein M of SARS-CoV Urbani / Binding of serum 37 to linear peptides of protein M of SARS-CoV Urbani / Binding of serum 6 to looped/cyclic peptides of protein M of SARS-CoV Urbani / Binding of serum 37 to looped/cyclic peptides of protein M of SARS-CoV Urbani / Binding of serum 6 to linear peptides of protein X3 of SARS-CoV Urbani / Binding of serum 37 to linear peptides of protein X3 of SARS-CoV Urbani / Binding of serum 37 to looped/cyclic peptides of protein X3 of SARS-CoV Urbani / Binding of serum 6 to linear peptides of protein X4 of SARS-CoV Urbani / Binding of serum 37 to linear peptides of protein X4 of SARS-CoV Urbani / Binding of serum 37 to looped/cyclic peptides of protein X4 of SARS-CoV Urbani / Binding of serum 6 to linear peptides of protein X5 of SARS-CoV Urbani / Binding of serum 37 to linear peptides of protein X5 of SARS-CoV Urbani / Binding of serum 37 to looped/cyclic peptides of protein X5 of SARS-CoV Urbani / Binding of serum 6 to linear peptides of protein N of SARS-CoV Urbani / Binding of serum 37 to linear peptides of protein N of SARS-CoV Urbani / Binding of serum 6 to linear peptide (PEPSCAN-ELISA) / Binding of serum 1a to looped/cyclic peptides of protein N of SARS-CoV Urbani / Binding of serum 1b to looped/cyclic peptides of protein N of SARS-CoV Urbani / Binding of serum 2 to looped/cyclic peptides of protein N of SARS-CoV Urbani / Binding of serum 6 to looped/cyclic peptides of protein N of SARS-CoV Urbani / Binding of serum 37 to looped/cyclic peptides of protein N of SARS-CoV Urbani / Binding of serum 62 to looped/cyclic peptides of protein N of SARS-CoV Urbani / Binding of serum London to looped/cyclic peptides of protein N of SARS-CoV Urbani / Binding of serum SARS-green to looped/cyclic peptides of protein N of SARS-CoV Urbani: unit not given here

MLLQFAYSNRNRFLY
Binding of Control Serum Blood-Bank to Looped peptides of the protein M of SARS-CoV Urbani [1]: 0.4 | Binding of Control serum Blood-bank to linear peptides of the protein M of SARS-CoV Urbani [1]: 0.6 | Binding of Control serum LUMC to linear peptides of the protein M of SARS-CoV Urbani [1]: 0.3 | Binding of Control serum LUMC to looped peptides of the protein M of SARS-CoV Urbani [1]: 0.5 | Rabbit serum linear peptides [2]: 0.5 | Rabbit serum looped peptides [2]: 0.0 | Binding of serum 1a to linear peptides of protein M of SARS-CoV Urbani [3]: 0.6 | Binding of serum 1a to looped/cyclic peptides of protein M of SARS-CoV Urbani [3]: 0.8 | Binding of serum 1b to linear peptides of protein M of SARS-CoV Urbani [3]: 0.4 | Binding of serum 1b to looped/cyclic peptides of protein M of SARS-CoV Urbani [3]: 0.2 | Binding of serum 2 to linear peptides of protein M of SARS-CoV Urbani [3]: 0.5 | Binding of serum 2 to looped/cyclic peptides of protein M of SARS-CoV Urbani [3]: 0.6 | Binding of serum 6 to linear peptides of protein M of SARS-CoV Urbani [3]: 0.2 | Binding of serum 6 to looped/cyclic peptides of protein M of SARS-CoV Urbani [3]: 1.3 | Binding of serum 37 to linear peptides of protein M of SARS-CoV Urbani [3]: 0.8 | Binding of serum 37 to looped/cyclic peptides of protein M of SARS-CoV Urbani [3]: 0.6 | Binding of serum 62 to linear peptides of protein M of SARS-CoV Urbani [3]: 0.7 | Binding of serum 62 to looped/cyclic peptides of protein M of SARS-CoV Urbani [3]: 0.5 | Binding of serum London to linear peptides of protein M of SARS-CoV Urbani [3]: 0.2 | Binding of serum London to looped/cyclic peptides of protein M of SARS-CoV Urbani [3]: 0.3 | Binding of serum SARS-green to linear peptides of protein M of SARS-CoV Urbani [3]: 0.2 | Binding of serum SARS-green to looped/cyclic peptides of protein M of SARS-CoV Urbani [3]: 0.2 | Binding of serum SARS-yellow to linear peptides of protein M of SARS-CoV Urbani [3]: 0.1 | Binding of serum SARS-yellow to looped/cyclic peptides of protein M of SARS-CoV Urbani [3]: 0.3

MMSRRRLLACLCKHK
Binding of Control Serum Blood-Bank to Looped peptides [1]: 0.2 | Binding of Control serum Blood-bank to linear peptides [1]: 0.8 | Binding of Control serum LUMC to linear peptides [1]: 0.5 | Binding of Control serum LUMC to looped peptides [1]: 0.2 | Binding of a rabbit serum to linear peptides [2]: 0.4 | Binding of a rabbit serum to looped peptides [2]: 0.3 | Binding of serum 1a to looped/cyclic peptides of protein X2 of SARS-CoV Urbani [3]: 0.2 | Binding of serum 1b to looped/cyclic peptides of protein X2 of SARS-CoV Urbani [3]: 0.2 | Binding of serum 2 to looped/cyclic peptides of protein X2 of SARS-CoV Urbani [3]: 0.1 | Binding of serum 6 to looped/cyclic peptides of protein X2 of SARS-CoV Urbani [3]: 0.0 | Binding of serum 37 to looped/cyclic peptides of protein X2 of SARS-CoV Urbani [3]: 0.2 | Binding of serum 62 to looped/cyclic peptides of protein X2 of SARS-CoV Urbani [3]: 0.3 | Binding of serum London to looped/cyclic peptides of protein X2 of SARS-CoV Urbani [3]: 0.1 | Binding of serum SARS-green to looped/cyclic peptides of protein X2 of SARS-CoV Urbani [3]: 0.1 | Binding of serum SARS-yellow to looped/cyclic peptides of protein X2 of SARS-CoV Urbani [3]: 0.2 | Recognition of the peptide by sera of SARS-CoV infected individuals, and form (linear, looped/cyclic) in which it is recognized [3]: recognized in linear form

MRCWLCWKCKSKNPL
Binding of Control Serum Blood-Bank to Looped peptides [1]: 0.2 | Binding of Control serum Blood-bank to linear peptides [1]: 0.9 | Binding of Control serum LUMC to linear peptides [1]: 0.8 | Binding of Control serum LUMC to looped peptides [1]: 0.4 | Binding of a rabbit serum to linear peptides [2]: 0.1 | Binding of a rabbit serum to looped peptides [2]: 0.5 | Binding of serum 1a to looped/cyclic peptide (PEPSCAN-ELISA) [3]: 0.2 | Binding of serum 1b to looped/cyclic peptide (PEPSCAN-ELISA) [3]: 0.2 | Binding of serum 2 to looped/cyclic peptide (PEPSCAN-ELISA) [3]: 0.0 | Binding of serum 6 to looped/cyclic peptide (PEPSCAN-ELISA) [3]: 0.1 | Binding of serum 37 to looped/cyclic peptide (PEPSCAN-ELISA) [3]: 0.2 | Binding of serum 62 to looped/cyclic peptide (PEPSCAN-ELISA) [3]: 0.3 | Binding of serum London to looped/cyclic peptide (PEPSCAN-ELISA) [3]: 0.2 | Binding of serum SARS-green to looped/cyclic peptide (PEPSCAN-ELISA) [3]: 0.1 | Binding of serum SARS-yellow to looped/cyclic peptide (PEPSCAN-ELISA) [3]: 0.2 | Recognition of the peptide by sera of SARS-CoV infected individuals, and form (linear, looped/cyclic) in which it is recognized [3]: recognized in linear form

MSLYMAISPKFTTSL
Binding of Control Serum Blood-Bank to Looped peptides [1]: 0.8 | Binding of Control serum Blood-bank to linear peptides [1]: 0.7 | Binding of Control serum LUMC to linear peptides [1]: 0.6 | Binding of Control serum LUMC to looped peptides [1]: 0.9 | Binding of a rabbit serum to linear peptides [2]: 0.3 | Binding of a rabbit serum to looped peptides [2]: 0.5 | Binding of serum 1a to linear peptides of protein X2 [3]: 0.8 | Binding of serum 1a to looped/cyclic peptides of protein X2 of SARS-CoV Urbani [3]: 0.7 | Binding of serum 1b to linear peptides of protein X2 [3]: 0.7 | Binding of serum 1b to looped/cyclic peptides of protein X2 of SARS-CoV Urbani [3]: 0.6 | Binding of serum 2 to linear peptides of protein X2 [3]: 0.4 | Binding of serum 2 to looped/cyclic peptides of protein X2 of SARS-CoV Urbani [3]: 0.4 | Binding of serum 6 to linear peptides of protein X2 [3]: 0.3 | Binding of serum 6 to looped/cyclic peptides of protein X2 of SARS-CoV Urbani [3]: 0.5 | Binding of serum 37 to linear peptides of protein X2 [3]: 0.6 | Binding of serum 37 to looped/cyclic peptides of protein X2 of SARS-CoV Urbani [3]: 0.5 | Binding of serum 62 to linear peptides of protein X2 [3]: 0.6 | Binding of serum 62 to looped/cyclic peptides of protein X2 of SARS-CoV Urbani [3]: 0.8 | Binding of serum London to linear peptides of protein X2 [3]: 0.4 | Binding of serum London to looped/cyclic peptides of protein X2 of SARS-CoV Urbani [3]: 0.4 | Binding of serum SARS-green to linear peptides of protein X2 [3]: 0.5 | Binding of serum SARS-green to looped/cyclic peptides of protein X2 of SARS-CoV Urbani [3]: 0.3 | Binding of serum SARS-yellow to linear peptides of protein X2 [3]: 0.3 | Binding of serum SARS-yellow to looped/cyclic peptides of protein X2 of SARS-CoV Urbani [3]: 0.5

MTTVYHITVSQIQLS
Binding of Control Serum Blood-Bank to Looped peptides [1]: 0.6 | Binding of Control serum Blood-bank to linear peptides [1]: 0.6 | Binding of Control serum LUMC to linear peptides [1]: 0.6 | Binding of Control serum LUMC to looped peptides [1]: 0.5 | Binding of a rabbit serum to linear peptides [2]: 0.7 | Binding of a rabbit serum to looped peptides [2]: 0.4 | Binding of serum 1a to linear peptides of protein X2 [3]: 0.7 | Binding of serum 1a to looped/cyclic peptides of protein X2 of SARS-CoV Urbani [3]: 0.5 | Binding of serum 1b to linear peptides of protein X2 [3]: 0.6 | Binding of serum 1b to looped/cyclic peptides of protein X2 of SARS-CoV Urbani [3]: 0.5 | Binding of serum 2 to linear peptides of protein X2 [3]: 0.5 | Binding of serum 2 to looped/cyclic peptides of protein X2 of SARS-CoV Urbani [3]: 0.3 | Binding of serum 6 to linear peptides of protein X2 [3]: 0.5 | Binding of serum 6 to looped/cyclic peptides of protein X2 of SARS-CoV Urbani [3]: 0.3 | Binding of serum 37 to linear peptides of protein X2 [3]: 0.6 | Binding of serum 37 to looped/cyclic peptides of protein X2 of SARS-CoV Urbani [3]: 0.5 | Binding of serum 62 to linear peptides of protein X2 [3]: 0.5 | Binding of serum 62 to looped/cyclic peptides of protein X2 of SARS-CoV Urbani [3]: 0.6 | Binding of serum London to linear peptides of protein X2 [3]: 0.5 | Binding of serum London to looped/cyclic peptides of protein X2 of SARS-CoV Urbani [3]: 0.2 | Binding of serum SARS-green to linear peptides of protein X2 [3]: 0.2 | Binding of serum SARS-green to looped/cyclic peptides of protein X2 of SARS-CoV Urbani [3]: 0.4 | Binding of serum SARS-yellow to linear peptides of protein X2 [3]: 0.6 | Binding of serum SARS-yellow to looped/cyclic peptides of protein X2 of SARS-CoV Urbani [3]: 0.4

NACRIIMRCWLCWKC
Binding of Control Serum Blood-Bank to Looped peptides [1]: 0.8 | Binding of Control serum Blood-bank to linear peptides [1]: 1.0 | Binding of Control serum LUMC to linear peptides [1]: 0.5 | Binding of Control serum LUMC to looped peptides [1]: 0.6 | Recognition of the peptide by the rabbit serum [2]: recognized | Binding of serum 1a to looped/cyclic peptide (PEPSCAN-ELISA) [3]: 0.6 | Binding of serum 1b to looped/cyclic peptide (PEPSCAN-ELISA) [3]: 0.5 | Binding of serum 2 to looped/cyclic peptide (PEPSCAN-ELISA) [3]: 0.5 | Binding of serum 6 to looped/cyclic peptide (PEPSCAN-ELISA) [3]: 0.6 | Binding of serum 37 to looped/cyclic peptide (PEPSCAN-ELISA) [3]: 0.5 | Binding of serum 62 to looped/cyclic peptide (PEPSCAN-ELISA) [3]: 0.7 | Binding of serum London to looped/cyclic peptide (PEPSCAN-ELISA) [3]: 0.3 | Binding of serum SARS-green to looped/cyclic peptide (PEPSCAN-ELISA) [3]: 0.3 | Binding of serum SARS-yellow to looped/cyclic peptide (PEPSCAN-ELISA) [3]: 0.4 | Recognition of the peptide by sera of SARS-CoV infected individuals, and form (linear, looped/cyclic) in which it is recognized [3]: recognized in linear form
